Experimental data from patent publication US20210023024A1, “COMPOSITION FOR TREATMENT OF CHRONIC WOUNDS” (priority 2018, published 2021).

Test system: diabetic foot ulcer
Test: Clinical use of triclosan cream on diabetic foot ulcers (patients 1 and 2)
Assay type: in vivo, human
Text: A triclosan cream formulation, according to an embodiment of the invention (Example 5), was applied to a number of patients, with differently presented conditions and symptoms. as described below:
diabetic. Neuro ischaemic. Heart rate: pulse mono and biphasic depending on the weather. Indication of reduced arterial blood flow due to a blockage or low elasticity. Ex-smoker. Stage 3 Non healing dorsal diabetic foot ulcer.
The patient had 2 ulcers: • 1) one on the dorsal IPJ on the 2nd toe, size of 5 pence, 1 cm sq and • 2) one on apex of 1st toe, size of 5p, 1 cm sq.
The patient was treated twice a week. The ulcer was filled with the cream to the brim, so the cream was level with skin surface. […] Triclosan cream was applied for 8 weeks. The cream was packed into the wound and a non-adhesive foam dressing was applied. The patient then wore rocker bottom soles to reduce the weight and pressure. Treatment for this toe ulcer started on Mar. 11, 2017 and healed on 20/1/18. No other medication was used.
The patient had 1 ulcer on sole of foot, approximately the size of 50 pence.
While the patient was receiving chemotherapy, the triclosan cream was applied for 8 weeks. The triclosan cream was applied every alternate day, with a sharp debridement and cleansed with sterile saline solution prior to application of the cream. In the last two weeks of treatment the cream was applied daily. […]

Compound: Cc1onc(-c2c(F)cccc2Cl)c1C(=O)N[C@@H]1C(=O)N2[C@@H]1SC(C)(C)[C@@H]2C(=O)O [Flucloxacilin]
- outcome of previous treatment (Patient 1, before triclosan cream, Flucloxacilin 6 months intermittently, 6 courses): could not clear the infection in the wound
- outcome of previous treatment (Patient 2, before triclosan cream): could not clear the infection in the wound
